Results as given in patent US20230013669A1, “Antibacterial Treatment Using a Cannabinoid and an Active Agent” (priority 2019, published 2023).
Values after ≈ are worked out from the molar mass of the structure shown. Values joined by “and” are separate entries in the source; they are usually repeats but may differ in a detail not shown here. Equal values may be shown once. Where a name gives a salt, the structure may show the parent alone. Read-outs that look alike come from different tables or passages of the source. Residues, ends and D or L forms follow the SMILES beside them.

Experiments:
Type in all cases: cell-based
[1] = test system: Klebsiella pneumoniae ATCC 700603; test: MIC micro-broth dilution assay (Example 1 method); details: for MIC: Klebsiella pneumoniae
Protocol: Methods were as for Example 1. Cannabidiol was tested in combination with cefotetan.
Methods were as for Example 1. Cannabidiol was tested in combination with aztreonam.
Methods were as for Example 1. Cannabidiol was tested in combination with cefepime.
Methods were as for Example 1. Cannabidiol was tested in combination with octapeptin C4.
Methods were as for Example 1. Cannabidiol was tested in combination with Spero SPR206. The experiments were carried out three times.

[2] = test system: Acinetobacter baumannii ATCC 19606 (GN_034); test: MIC micro-broth dilution assay (Example 1 method); details: for MIC: Acinetobacter baumannii
Protocol: (§6) The plates were covered and incubated at 37° C. for 18-20 h.
(§7) Optical density was read at 600 nm (OD600) using Tecan M1000 Pro Spectrophotometer. […] Analysis was performed using Microsoft Excel.

[3] = test system: Pseudomonas aeruginosa ATCC 27853 (GN_042); test: MIC micro-broth dilution assay (Example 1 method); details: for MIC: Pseudomonas aeruginosa
Protocol: as §6, §7

[4] = test system: Escherichia coli ATCC 25922 (GN_001); test: MIC micro-broth dilution assay (Example 1 method); details: for MIC: Escherichia coli
Protocol: as §6, §7

[5] = test system: Klebsiella pneumoniae ATCC 13883 (GN_003 / GN_004); test: MIC micro-broth dilution assay (Example 1 method); details: for MIC: Klebsiella pneumoniae
Protocol: as §6, §7

[6] = test system: Acinetobacter baumannii ATCC 19606 Type Strain (GN_034); test: MIC broth microdilution, 96-well, visual reading (Example 11); details: GN_034, n=4 replicates; for MIC: Acinetobacter baumannii, ATCC19606, read-out: MIC (Test results), Example 11 Table 41; for MIC (Test results): Example 11 Table 41
Protocol: (§1) The experiment was performed to investigate the antimicrobial activity of cannabidiol (CBD) against an LPS deficient strain (GN_237 Acinetobacter baumannii, IpxA mutant; Lipid A deficient; obtained by colistin selection from base strain ATCC 19606) and its parent strain (GN_034, Acinetobacter baumannii, ATCC 19606).
(§2) All plates had flat bottom wells and were covered with low-evaporation lids.
(§3) Two biological replicates ×2 technical replicates were conducted on separate days (final n=4). Inhibition of bacterial growth was determined visually, where the MIC was recorded as the lowest compound concentration with no visible growth.

[7] = test system: Acinetobacter baumannii AL1851, IpxA mutant; Lipid A deficient (GN_237); test: as above; details: for MIC: Acinetobacter baumannii, read-out: MIC (Test results), Example 11 Table 41; for MIC / MIC (Test results): GN_237, n=4 replicates; for MIC (Test results): Example 11 Table 41
Protocol: as §1, §2, §3

[8] = test system: Klebsiella pneumoniae ATCC 700603; test: microbe, parasite or virus in culture
Protocol: (§4) The inoculum was then diluted in CaMHB to give a mid-log phase cultures and 40 μL was added to each well from column 1 to column 18, and column 23. 45 μL of the inoculum was added to each well from column 19 to column 22 to give the final cell density of 5×10^5 CFU/mL. The plates were incubated at 37° C. for 18-20h.
(§5) Optical density was read at 600 nm (OD600) using Gen5 Spectrophotometer. […] Analysis was performed using Microsoft Excel.

[9] = test system: Escherichia coli ATCC 25922; test: microbe, parasite or virus in culture
Protocol: as §4, §5

[10] = test system: Pseudomonas aeruginosa ATCC 27853; test: microbe, parasite or virus in culture
Protocol: as §4, §5

[11] = test system: Acinetobacter baumannii ATCC 19606; test: microbe, parasite or virus in culture
Protocol: as §4, §5

[12] = ATCC19606, read-out: Minimum Inhibitory Concentration (MIC), Example 5 Table 19, GN_034, compound alone, replicates
[13] = Example 5 Table 19, GN_034, compound alone, replicates
[14] = Acinetobacter baumannii ATCC 19606
[15] = Klebsiella pneumoniae ATCC 700603
[16] = Pseudomonas aeruginosa ATCC 27853
[17] = Example 10 Table 38, compound alone, replicates

C[C@H]1[C@H](NC(=O)/C(=N\OC(C)(C)C(=O)O)c2csc(N)n2)C(=O)N1S(=O)(=O)O [Aztreonam]
MIC ([1]; ATCC700603, read-out: MIC of Aztreonam, Aztreonam alone): 64 µg/mL | MIC ([2]; ATCC19606, read-out: MIC of Aztreonam, Aztreonam alone): 32 µg/mL | MIC ([2]; ATCC19606, read-out: MIC of aztreonam, Example 5 Table 20, GN_034): 32 µg/mL | MIC [2, 12]: 16 µg/mL (≈ 36.7 µM) | Minimum Inhibitory Concentration (MIC) [2, 13]: 16 µg/mL | MIC ([3]; ATCC27853, read-out: MIC of Aztreonam): 4 µg/mL

CO/N=C(\C(=O)N[C@@H]1C(=O)N2C(C(=O)[O-])=C(C[N+]3(C)CCCC3)CS[C@H]12)c1csc(N)n1 [Cefepime]
MIC ([1]; ATCC700603, read-out: MIC of Cefepime): 1 µg/mL | MIC ([2]; ATCC19606, read-out: MIC of Cefepime, Cefepime alone): 16 µg/mL | MIC ([2]; ATCC19606, read-out: MIC of Cefepime, Example 5 Table 20, GN_034): 16 µg/mL | MIC [2, 12]: 16 µg/mL (≈ 33.3 µM) | Minimum Inhibitory Concentration (MIC) [2, 13]: 16 µg/mL | MIC of Cefepime ([4]; Cefepime alone): 0.062 µg/mL | MIC ([4]; ATCC25922, read-out: MIC of Cefepime, Cefepime alone): 0.031 µg/mL | MIC ([3]; ATCC27853, read-out: MIC of Cefepime): 256 µg/mL

CO[C@@]1(NC(=O)C2SC(=C(C(N)=O)C(=O)O)S2)C(=O)N2C(C(=O)O)=C(CSc3nnnn3C)CS[C@@H]21 (stereo partly drawn) [Cefotetan]
MIC of Cefotetan ([1]; Cefotetan alone): 1 µg/mL | MIC ([1]; ATCC700603, read-out: MIC of Cefotetan, Cefotetan alone): 0.5 µg/mL | MIC ([2]; ATCC19606, read-out: MIC of Cefotetan, Acinetobacter baumannii ATCC 19606): 256 µg/mL | MIC ([2]; ATCC19606, read-out: MIC of Cefotetan, Cefotetan alone): 256 µg/mL | MIC ([4]; ATCC25922, read-out: MIC of Cefotetan, Cefotetan alone): 0.25 µg/mL | MIC ([4]; ATCC25922, read-out: MIC of Cefotetan, Escherichia coli ATCC 25922): 0.25 µg/mL | MIC of Cefotetan ([3]; Cefotetan alone): 256 µg/mL | MIC ([3]; ATCC27853, read-out: MIC of Cefotetan): 256 µg/mL

CC(C)(O/N=C(\C(=O)N[C@@H]1C(=O)N2C(C(=O)[O-])=C(C[n+]3ccccc3)CS[C@H]12)c1csc(N)n1)C(=O)O [Ceftazidime]
MIC of Ceftazidime [2, 14]: 4 µg/mL | MIC ([2]; ATCC19606, read-out: MIC of Ceftazidime, Acinetobacter baumannii ATCC 19606): 4 µg/mL | MIC of Ceftazidime [5, 15]: 128 µg/mL | MIC ([5]; ATCC 13883 / ATCC 700603, read-out: MIC of Ceftazidime, Klebsiella pneumoniae ATCC 700603): 64 µg/mL | MIC of Ceftazidime ([4]; Escherichia coli ATCC 25922): 0.062 µg/mL | MIC ([4]; ATCC25922, read-out: MIC of Ceftazidime, Escherichia coli ATCC 25922): 0.06 µg/mL | MIC of Ceftazidime [3, 16]: 4 µg/mL | MIC ([3]; ATCC27853, read-out: MIC of Ceftazidime): 4 µg/mL

CO/N=C(\C(=O)N[C@@H]1C(=O)N2C(C(=O)O)=C(COC(N)=O)CS[C@H]12)c1ccco1 [Cefuroxime]
MIC ([2]; ATCC19606, read-out: MIC of Cefuroxime, Acinetobacter baumannii ATCC 19606): 64 µg/mL | MIC ([2]; ATCC19606, read-out: MIC of cefuroxime, Example 2 Table 8, GN_034): 64 µg/mL | MIC ([2]; ATCC19606, read-out: Minimum Inhibitory Concentration (MIC), Example 2 Table 7, GN_034, compound alone, replicates): > 32 µg/mL | Minimum Inhibitory Concentration (MIC) ([2]; Example 2 Table 7, GN_034, compound alone, replicates, listed as MCC_009386): >32 μg/mL and 64 μg/mL (2×) | MIC ([5]; ATCC 13883 / ATCC 700603, read-out: MIC of Cefuroxime, Klebsiella pneumoniae ATCC 700603): 16 µg/mL | MIC ([4]; ATCC25922, read-out: MIC of Cefuroxime, Escherichia coli ATCC 25922): 2 µg/mL | MIC ([3]; ATCC27853, read-out: MIC of Cefuroxime): 256 µg/mL

CCC[C@@H]1C[C@@H](C(=O)N[C@@H]([C@H]2O[C@H](SC)[C@H](O)[C@@H](O)[C@H]2O)[C@H](C)Cl)N(C)C1 [Clindamycin hydrochloride monohydrate]
MIC [6]: 128 µg/mL | MIC (Test results) [6]: 128 μg/mL (2×) and >128 μg/mL | MIC [7]: 4 µg/mL | MIC (Test results) [7]: 4 μg/mL and 8 μg/mL (2×)

C/C(=C\C(=O)OCCCCCCCCC(=O)O)C[C@@H]1OC[C@H](C[C@@H]2O[C@H]2[C@@H](C)[C@H](C)O)[C@@H](O)[C@H]1O [Mupirocin]
MIC [6]: 128 µg/mL (≈ 256 µM) | MIC (Test results) [6]: 128 µg/mL (≈ 256 µM) | MIC [7]: 32 µg/mL (≈ 63.9 µM) | MIC (Test results) [7]: 16 µg/mL (≈ 32 µM)

CC(C)C[C@@H]1NC(=O)[C@@H](Cc2ccccc2)NC(=O)[C@H](CCN)NC(=O)[C@@H](NC(=O)[C@H](CCN)NC(=O)[C@@H](N)[C@@H](C)O)CCNC(=O)[C@H]([C@@H](C)O)NC(=O)[C@H](CCN)NC(=O)[C@H](CCN)NC1=O [PMBN] (HELM PEPTIDE1{T.[Dab].[Dab].[Dab].[dF].L.[Dab].[Dab].T}$PEPTIDE1,PEPTIDE1,3:R3-9:R2$$$V2.0; N-terminus assumed; bridges inferred)
antimicrobial activity alone ([8]; Example 10): poor antimicrobial activity | MIC [8, 17]: >32 µg/mL | MIC of PMBN ([8]; Example 10 Table 39): >32 µg/mL | antimicrobial activity alone ([9]; Example 10): poor antimicrobial activity | MIC [9, 17]: >32 µg/mL | MIC of PMBN ([9]; Example 10 Table 39): >32 µg/mL | antimicrobial activity alone ([10]; Example 10): poor antimicrobial activity | MIC [10, 17]: >32 µg/mL | MIC of PMBN ([10]; Example 10 Table 39): >32 µg/mL | antimicrobial activity alone ([11]; Example 10): poor antimicrobial activity | MIC [11, 17]: >32 µg/mL | MIC of PMBN ([11]; Example 10 Table 39): >32 µg/mL

CC(=O)N[C@H](C(=O)N[C@H](CO)C(=O)N[C@H]1CCNC(=O)[C@H]([C@@H](C)O)NC(=O)[C@H](CCN)NC(=O)[C@H](CCN)NC(=O)[C@H](CC(C)C)NC(=O)[C@@H](Cc2ccccc2)NC(=O)[C@H](CCN)NC1=O)[C@@H](C)O [Spero Potentiator SPR741] (HELM PEPTIDE1{[ac].T.[dS].[Dab].[Dab].[dF].L.[Dab].[Dab].T}$PEPTIDE1,PEPTIDE1,4:R3-10:R2$$$V2.0)
MIC of Spero Potentiator SPR741 ([2]; Acinetobacter baumannii ATCC 19606, alone): >128 µg/mL and >64 µg/mL | MIC of Spero Potentiator SPR741 ([5]; Klebsiella pneumoniae ATCC 700603 (so in the source), alone): >128 µg/mL and >64 µg/mL | MIC of Spero Potentiator SPR741 ([4]; Escherichia coli ATCC 25922, alone): 64 µg/mL and 128 µg/mL | MIC of Spero Potentiator SPR741 ([3]; Pseudomonas aeruginosa ATCC 27853, alone): 64.00 µg/mL and 64 µg/mL

CC1(C)S[C@@H]2[C@H](NC(=O)[C@H](C(=O)O)c3ccsc3)C(=O)N2[C@H]1C(=O)O [Ticarcillin]
MIC ([2]; ATCC19606, read-out: MIC of Ticarcillin): 4 µg/mL | MIC ([5]; ATCC 13883 / ATCC 700603, read-out: MIC of Ticarcillin): 128 µg/mL | MIC ([4]; ATCC25922, read-out: MIC of Ticarcillin): 8 µg/mL | MIC of Ticarcillin [3, 16]: 16 µg/mL | MIC ([3]; ATCC27853, read-out: MIC of Ticarcillin, Pseudomonas aeruginosa ATCC 27853): 32 µg/mL

Colistin
MIC of Colistin [2, 14]: 1.00 µg/mL and 1 µg/mL | Minimum Inhibitory Concentration (MIC) ([2]; Example 3 Table 11, GN_034, compound alone, replicates): 1 µg/mL | MIC of Colistin ([2]; Example 3 Table 12, GN_034): 1 µg/mL | MIC of Colistin [5, 15]: 0.50 µg/mL and 0.5 µg/mL | activity alone ([7]; Example 11, Lipid A deficient GN_237): resistant | MIC of Colistin ([4]; Escherichia coli ATCC 25922): 0.50 µg/mL and 0.5 µg/mL | Minimum Inhibitory Concentration (MIC) ([4]; Example 3 Table 11, GN_001, compound alone, replicates, listed as MCC_000094): 0.25 μg/mL and 0.5 μg/mL and 2 μg/mL (2×) | MIC of Colistin ([4]; Example 3 Table 12, GN_001): 0.5 µg/mL | MIC of Colistin [3, 16]: 1.00 µg/mL and 1 µg/mL

Colistin Sulfate
MIC (Test results) [6]: 1 µg/mL | MIC (Test results) [7]: >128 μg/mL (2×) and 128 μg/mL (2×)

Gentamycin
MIC (Test results) [6]: 32 μg/mL (2×) and 64 μg/mL (2×) | MIC (Test results) [7]: 1 μg/mL (2×) and 2 μg/mL and 0.5 μg/mL

Teicoplanin
MIC (Test results) [6]: >128 µg/mL | MIC (Test results) [7]: 0.25 μg/mL (2×) and 0.5 μg/mL
